According to PMC8359193, “Summary of reference chemicals evaluated by the fish short‐term reproduction assay, OECD TG229, using Japanese Medaka, Oryzias latipes” (Journal of Applied Toxicology, 2021):
“Also recorded” adds a separate entry of the source.

System: Japanese medaka (Oryzias latipes)
Assay: Fish short-term reproduction assay (FSTRA, OECD TG229), 21-day flow-through exposure
Settings: for LOEC on female SSC (papillary process formation on anal fin): measured conc.; for GSI Female / GSI Male / HSI Male / Length Male / Weight Male / HSI Female / Length Female / Weight Female: at completion of exposure; for Fertility rate (%) / Mortality (%) Female / Mortality (%) Male / Number of fertilized eggs / Number of total eggs / SSC Female / SSC Male / VTG (ng/mg of liver) Female / VTG (ng/mg of liver) Male: 21 days; for effect on fecundity (number of total eggs), in words: within the test concentrations
Summary of the method: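 Japanese medaka (NIES-R strain, 16 ± 2 weeks old) were exposed in flow-through tanks for 3 weeks, three males and three females per tank, four replicate tanks per group, with a dilution water control. Concentrations were spaced by a factor of 2–5. Eggs were collected daily and counted as fertilized or unfertilized.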

[1] = female, measured conc. 0.748 mg/L
[2] = female, measured conc. 2.46 mg/L
[3] = female, measured conc. 10.0 mg/L
[4] = male, measured conc. 0.748 mg/L

CC(=O)[C@H]1CC[C@H]2[C@@H]3CCC4=CC(=O)CC[C@]4(C)[C@H]3CC[C@]12C [P4, Progesterone]
effect on female hepatic VTG, in words (21-day exposure): no alteration
LOEC on female SSC (papillary process formation on anal fin) (21-day exposure): 11 µg/L
GSI Female (female, measured conc. 243 μg/L): 36.9%
GSI Male (male, measured conc. 11 μg/L): 1.20%
HSI Male (male, measured conc. 11 μg/L): 2.0%
Length Male (male, measured conc. 11 μg/L): 36.9 mm
Weight Male (male, measured conc. 11 μg/L): 501 mg
GSI Male (male, measured conc. 24 μg/L): 1.04%
HSI Male (male, measured conc. 24 μg/L): 1.9%
Length Male (male, measured conc. 24 μg/L): 36.4 mm
Weight Male (male, measured conc. 24 μg/L): 475 mg
GSI Male (male, measured conc. 64 μg/L): 1.14%
HSI Male (male, measured conc. 64 μg/L): 2.8%
Length Male (male, measured conc. 64 μg/L): 37.1 mm
Weight Male (male, measured conc. 64 μg/L): 465 mg
GSI Male (male, measured conc. 243 μg/L): 1.15%
HSI Male (male, measured conc. 243 μg/L): 2.1%
Length Male (male, measured conc. 243 μg/L): 36.9 mm
Weight Male (male, measured conc. 243 μg/L): 479 mg
Fertility rate (%) (measured conc. 11 μg/L): 92%
Mortality (%) Female (measured conc. 11 μg/L): 0%
Mortality (%) Male (measured conc. 11 μg/L): 0%
Number of fertilized eggs (measured conc. 11 μg/L): 17
Number of total eggs (measured conc. 11 μg/L): 18 ± 3.8 /female/day
SSC Female (measured conc. 11 μg/L): 11 ± 8.9
SSC Male (measured conc. 11 μg/L): 109 ± 14
VTG (ng/mg of liver) Female (measured conc. 11 μg/L): 746 ± 419 ng/mg of liver
VTG (ng/mg of liver) Male (measured conc. 11 μg/L): 33 ± 29 ng/mg of liver
Fertility rate (%) (measured conc. 24 μg/L): 91%
Mortality (%) Female (measured conc. 24 μg/L): 8%
Mortality (%) Male (measured conc. 24 μg/L): 0%
Number of fertilized eggs (measured conc. 24 μg/L): 16
Number of total eggs (measured conc. 24 μg/L): 17 ± 4.0 /female/day
SSC Female (measured conc. 24 μg/L): 21 ± 5.9
SSC Male (measured conc. 24 μg/L): 108 ± 20
VTG (ng/mg of liver) Female (measured conc. 24 μg/L): 818 ± 270 ng/mg of liver
VTG (ng/mg of liver) Male (measured conc. 24 μg/L): 29 ± 22 ng/mg of liver
Fertility rate (%) (measured conc. 64 μg/L): 87%
Mortality (%) Female (measured conc. 64 μg/L): 8%
Mortality (%) Male (measured conc. 64 μg/L): 0%
Number of fertilized eggs (measured conc. 64 μg/L): 15
Number of total eggs (measured conc. 64 μg/L): 16 ± 6.5 /female/day
SSC Female (measured conc. 64 μg/L): 35 ± 8.9
SSC Male (measured conc. 64 μg/L): 101 ± 13
VTG (ng/mg of liver) Female (measured conc. 64 μg/L): 1,008 ± 445 ng/mg of liver
VTG (ng/mg of liver) Male (measured conc. 64 μg/L): 37 ± 27 ng/mg of liver
Fertility rate (%) (measured conc. 243 μg/L): 2.9%
Mortality (%) Female (measured conc. 243 μg/L): 83%
Mortality (%) Male (measured conc. 243 μg/L): 50%
Number of fertilized eggs (measured conc. 243 μg/L): 0.2
Number of total eggs (measured conc. 243 μg/L): 1.0 ± 2.3 /female/day
SSC Female (measured conc. 243 μg/L): 32 ± 21
SSC Male (measured conc. 243 μg/L): 100 ± 10
VTG (ng/mg of liver) Female (measured conc. 243 μg/L): 899 ± 139 ng/mg of liver
VTG (ng/mg of liver) Male (measured conc. 243 μg/L): 37 ± 36 ng/mg of liver
effect on fecundity (number of total eggs), in words (21-day exposure): significant difference from the control

CCCCCCCCCCCCOS(=O)(=O)[O-].[Na+] [SDS, Sodium dodecyl sulfate]
effect on fertility rate, in words (21-day exposure): significant decrease; also recorded: significant reduction
effect on male hepatic VTG, in words (21-day exposure): no VTG induction
GSI Female [1]: 10.9%
HSI Female [1]: 4.8%
Length Female [1]: 35.6 mm
Weight Female [1]: 547 mg
GSI Female [2]: 10.8%
HSI Female [2]: 4.8%
Length Female [2]: 36.6 mm
Weight Female [2]: 573 mg
GSI Female [3]: 11.0%
HSI Female [3]: 4.9%
Length Female [3]: 36.1 mm
Weight Female [3]: 573 mg
GSI Male [4]: 0.88%
HSI Male [4]: 2.3%
Length Male [4]: 36.7 mm
Weight Male [4]: 544 mg
GSI Male (male, measured conc. 2.46 mg/L): 0.91%
HSI Male (male, measured conc. 2.46 mg/L): 2.0%
Length Male (male, measured conc. 2.46 mg/L): 36.7 mm
Weight Male (male, measured conc. 2.46 mg/L): 519 mg
GSI Male (male, measured conc. 10.0 mg/L): 1.17%
HSI Male (male, measured conc. 10.0 mg/L): 2.2%
Length Male (male, measured conc. 10.0 mg/L): 35.6 mm
Weight Male (male, measured conc. 10.0 mg/L): 493 mg
Fertility rate (%) (measured conc. 0.748 mg/L): 95%
Mortality (%) Female (measured conc. 0.748 mg/L): 0%
Mortality (%) Male (measured conc. 0.748 mg/L): 0%
Number of fertilized eggs (measured conc. 0.748 mg/L): 27
Number of total eggs (measured conc. 0.748 mg/L): 29 ± 3.9 /female/day
SSC Female (measured conc. 0.748 mg/L): 0 ± 0
SSC Male (measured conc. 0.748 mg/L): 107 ± 8.7
VTG (ng/mg of liver) Female (measured conc. 0.748 mg/L): 3,780 ± 305 ng/mg of liver
VTG (ng/mg of liver) Male (measured conc. 0.748 mg/L): 3.0 ± 4.2 ng/mg of liver
Fertility rate (%) (measured conc. 2.46 mg/L): 93%
Mortality (%) Female (measured conc. 2.46 mg/L): 0%
Mortality (%) Male (measured conc. 2.46 mg/L): 0%
Number of fertilized eggs (measured conc. 2.46 mg/L): 27
Number of total eggs (measured conc. 2.46 mg/L): 30 ± 2.7 /female/day
SSC Female (measured conc. 2.46 mg/L): 0 ± 0
SSC Male (measured conc. 2.46 mg/L): 112 ± 11
VTG (ng/mg of liver) Female (measured conc. 2.46 mg/L): 4,930 ± 189 ng/mg of liver
VTG (ng/mg of liver) Male (measured conc. 2.46 mg/L): 6.6 ± 11 ng/mg of liver
Fertility rate (%) (measured conc. 10.0 mg/L): 85%
Mortality (%) Female (measured conc. 10.0 mg/L): 0%
Mortality (%) Male (measured conc. 10.0 mg/L): 0%
Number of fertilized eggs (measured conc. 10.0 mg/L): 25
Number of total eggs (measured conc. 10.0 mg/L): 30 ± 1.8 /female/day
SSC Female (measured conc. 10.0 mg/L): 0 ± 0
SSC Male (measured conc. 10.0 mg/L): 110 ± 3.5
VTG (ng/mg of liver) Female (measured conc. 10.0 mg/L): 4,520 ± 906 ng/mg of liver
VTG (ng/mg of liver) Male (measured conc. 10.0 mg/L): 1.0 ± 0.5 ng/mg of liver
effect on fecundity (number of total eggs), in words (21-day exposure): no significant effect

C[C@]12C=CC3=C4CCC(=O)C=C4CC[C@H]3[C@@H]1CC[C@@H]2O [TRB, 17β‐Trenbolone]
LOEC on female SSC (papillary process formation on anal fin) (21-day exposure): 0.0268 µg/L
Fertility rate (%) (measured conc. 8.03 ng/L): 95%
Mortality (%) Female (measured conc. 8.03 ng/L): 0%
Mortality (%) Male (measured conc. 8.03 ng/L): 0%
Number of fertilized eggs (measured conc. 8.03 ng/L): 26
Number of total eggs (measured conc. 8.03 ng/L): 27 ± 3.5 /female/day
SSC Female (measured conc. 8.03 ng/L): 0 ± 0
SSC Male (measured conc. 8.03 ng/L): 86 ± 3.9
VTG (ng/mg of liver) Female (measured conc. 8.03 ng/L): 736 ± 147 ng/mg of liver
VTG (ng/mg of liver) Male (measured conc. 8.03 ng/L): 3.7 ± 3.2 ng/mg of liver
GSI Female (measured conc. 8.03 ng/L): 9.7%
GSI Male (measured conc. 8.03 ng/L): 1.04%
HSI Female (measured conc. 8.03 ng/L): 5.4%
HSI Male (measured conc. 8.03 ng/L): 1.8%
Length Female (measured conc. 8.03 ng/L): 36.4 mm
Length Male (measured conc. 8.03 ng/L): 36.7 mm
Weight Female (measured conc. 8.03 ng/L): 573 mg
Weight Male (measured conc. 8.03 ng/L): 502 mg
Fertility rate (%) (measured conc. 26.8 ng/L): 93%
Mortality (%) Female (measured conc. 26.8 ng/L): 0%
Mortality (%) Male (measured conc. 26.8 ng/L): 0%
Number of fertilized eggs (measured conc. 26.8 ng/L): 22
Number of total eggs (measured conc. 26.8 ng/L): 24 ± 2.6 /female/day
SSC Female (measured conc. 26.8 ng/L): 6.6 ± 6.1
SSC Male (measured conc. 26.8 ng/L): 101 ± 17
VTG (ng/mg of liver) Female (measured conc. 26.8 ng/L): 696 ± 211 ng/mg of liver
VTG (ng/mg of liver) Male (measured conc. 26.8 ng/L): 6.5 ± 3.8 ng/mg of liver
GSI Female (measured conc. 26.8 ng/L): 11.3%
GSI Male (measured conc. 26.8 ng/L): 1.06%
HSI Female (measured conc. 26.8 ng/L): 5.5%
HSI Male (measured conc. 26.8 ng/L): 2.1%
Length Female (measured conc. 26.8 ng/L): 35.6 mm
Length Male (measured conc. 26.8 ng/L): 37.3 mm
Weight Female (measured conc. 26.8 ng/L): 515 mg
Weight Male (measured conc. 26.8 ng/L): 500 mg
Fertility rate (%) (measured conc. 84.6 ng/L): 90%
Mortality (%) Female (measured conc. 84.6 ng/L): 0%
Mortality (%) Male (measured conc. 84.6 ng/L): 0%
Number of fertilized eggs (measured conc. 84.6 ng/L): 9.1
Number of total eggs (measured conc. 84.6 ng/L): 10 ± 2.4 /female/day
SSC Female (measured conc. 84.6 ng/L): 48 ± 6.7
SSC Male (measured conc. 84.6 ng/L): 104 ± 8.1
VTG (ng/mg of liver) Female (measured conc. 84.6 ng/L): 658 ± 102 ng/mg of liver
VTG (ng/mg of liver) Male (measured conc. 84.6 ng/L): 4.9 ± 4.3 ng/mg of liver
GSI Female (measured conc. 84.6 ng/L): 16.1%
GSI Male (measured conc. 84.6 ng/L): 1.11%
HSI Female (measured conc. 84.6 ng/L): 3.7%
HSI Male (measured conc. 84.6 ng/L): 2.1%
Length Female (measured conc. 84.6 ng/L): 36.1 mm
Length Male (measured conc. 84.6 ng/L): 37.7 mm
Weight Female (measured conc. 84.6 ng/L): 625 mg
Weight Male (measured conc. 84.6 ng/L): 524 mg
Fertility rate (%) (measured conc. 291 ng/L): 74%
Mortality (%) Female (measured conc. 291 ng/L): 0%
Mortality (%) Male (measured conc. 291 ng/L): 0%
Number of fertilized eggs (measured conc. 291 ng/L): 0.9
Number of total eggs (measured conc. 291 ng/L): 1.2 ± 0.5 /female/day
SSC Female (measured conc. 291 ng/L): 76 ± 3.9
SSC Male (measured conc. 291 ng/L): 103 ± 8.4
VTG (ng/mg of liver) Female (measured conc. 291 ng/L): 641 ± 200 ng/mg of liver
VTG (ng/mg of liver) Male (measured conc. 291 ng/L): 4.5 ± 2.1 ng/mg of liver
GSI Female (measured conc. 291 ng/L): 18.8%
GSI Male (measured conc. 291 ng/L): 1.10%
HSI Female (measured conc. 291 ng/L): 3.4%
HSI Male (measured conc. 291 ng/L): 1.8%
Length Female (measured conc. 291 ng/L): 37.3 mm
Length Male (measured conc. 291 ng/L): 37.0 mm
Weight Female (measured conc. 291 ng/L): 691 mg
Weight Male (measured conc. 291 ng/L): 504 mg
effect on fecundity (number of total eggs), in words (21-day exposure): significantly reduced
